Results published in ChEMBL document CHEMBL2086308, “Cytotoxic 2-phenyacrylnitriles, the importance of the cyanide moiety and discovery of potent broad spectrum cytotoxic agents” (2012).

Experiments:
Type in all cases: functional
MCF7 [1] = test: Growth inhibition of human MCF7 cells assessed as reduction in cell growth after 72 hrs by MTT assay; details: MCF7, 72 h
HT-29 [2] = test: Growth inhibition of human HT-29 cells assessed as reduction in cell growth after 72 hrs by MTT assay; details: HT-29, 72 h
SW480 [3] = test: Growth inhibition of human SW480 cells assessed as reduction in cell growth after 72 hrs by MTT assay; details: SW480, 72 h
A2780 [4] = test: Growth inhibition of human A2780 cells assessed as reduction in cell growth after 72 hrs by MTT assay; details: A2780, 72 h
NCI-H460 [5] = test: Growth inhibition of human H460 cells assessed as reduction in cell growth after 72 hrs by MTT assay; details: NCI-H460, 72 h
A-431 [6] = test: Growth inhibition of human A431 cells assessed as reduction in cell growth after 72 hrs by MTT assay; details: A-431, 72 h
DU-145 [7] = test: Growth inhibition of human DU145 cells assessed as reduction in cell growth after 72 hrs by MTT assay; details: DU-145, 72 h
[8] = Growth inhibition of human BE(2)-C cells assessed as reduction in cell growth after 72 hrs by MTT assay
[9] = Growth inhibition of human SJ-G2 cells assessed as reduction in cell growth after 72 hrs by MTT assay; details: SJ-G2, 72 h
MIA PaCa-2 [10] = test: Growth inhibition of human MIAPaCa2 cells assessed as reduction in cell growth after 72 hrs by MTT assay; details: MIA PaCa-2, 72 h
[11] = Growth inhibition of mouse SMA cells assessed as reduction in cell growth after 72 hrs by MTT assay
HT-29 [12] = test: Growth inhibition of human HT-29 cells assessed as reduction in cell growth at 25uM after 72 hrs by MTT assay; details: HT-29, 72 h, read-out: GI
SW480 [13] = test: Growth inhibition of human SW480 cells assessed as reduction in cell growth at 25uM after 72 hrs by MTT assay; details: SW480, 72 h, read-out: GI
MCF7 [14] = test: Growth inhibition of human MCF7 cells assessed as reduction in cell growth at 25uM after 72 hrs by MTT assay; details: MCF7, 72 h, read-out: GI
A2780 [15] = test: Growth inhibition of human A2780 cells assessed as reduction in cell growth at 25uM after 72 hrs by MTT assay; details: A2780, 72 h, read-out: GI
NCI-H460 [16] = test: Growth inhibition of human H460 cells assessed as reduction in cell growth at 25uM after 72 hrs by MTT assay; details: NCI-H460, 72 h, read-out: GI
A-431 [17] = test: Growth inhibition of human A431 cells assessed as reduction in cell growth at 25uM after 72 hrs by MTT assay; details: A-431, 72 h, read-out: GI
DU-145 [18] = test: Growth inhibition of human DU145 cells assessed as reduction in cell growth at 25uM after 72 hrs by MTT assay; details: DU-145, 72 h, read-out: GI
[19] = Growth inhibition of human BE(2)-C cells assessed as reduction in cell growth at 25uM after 72 hrs by MTT assay; details: read-out: GI
[20] = Growth inhibition of human SJ-G2 cells assessed as reduction in cell growth at 25uM after 72 hrs by MTT assay; details: SJ-G2, 72 h, read-out: GI
MIA PaCa-2 [21] = test: Growth inhibition of human MIAPaCa2 cells assessed as reduction in cell growth at 25uM after 72 hrs by MTT assay; details: MIA PaCa-2, 72 h, read-out: GI
[22] = Growth inhibition of mouse SMA cells assessed as reduction in cell growth at 25uM after 72 hrs by MTT assay; details: read-out: GI

SMILES | GI50 (MCF7 [1]) [µM] | GI50 (HT-29 [2]) [µM] | GI50 (SW480 [3]) [µM] | GI50 (A2780 [4]) [µM] | GI50 (NCI-H460 [5]) [µM] | GI50 (A-431 [6]) [µM] | GI50 (DU-145 [7]) [µM] | GI50 [8] [µM] | GI50 [9] [µM] | GI50 (MIA PaCa-2 [10]) [µM] | GI50 [11] [µM] | inhibition of growth at 25 µM (HT-29 [12]) [%] | inhibition of growth at 25 µM (SW480 [13]) [%] | inhibition of growth at 25 µM (MCF7 [14]) [%] | inhibition of growth at 25 µM (A2780 [15]) [%] | inhibition of growth at 25 µM (NCI-H460 [16]) [%] | inhibition of growth at 25 µM (A-431 [17]) [%] | inhibition of growth at 25 µM (DU-145 [18]) [%] | inhibition of growth at 25 µM [19] [%] | inhibition of growth at 25 µM [20] [%] | also measured
N#C/C(=C\c1ccc([N+](=O)[O-])cc1)c1ccc(Cl)c(Cl)c1 | 0.127 | 3.1 | 8.4 | 12 | 69 | 7.1 | 18 | 8.9 | 14 | 27 | – | – | – | – | – | – | – | – | – | – | –
N#C/C(=C\c1ccc(C(F)(F)F)cc1)c1ccc(Cl)c(Cl)c1 | 31 | 35 | 49 | 41 | 36 | 53 | 45 | 43 | 41 | 35 | 45 | – | – | – | – | – | – | – | – | – | –
N#C/C(=C\c1c[nH]c2ccccc12)c1ccc(Cl)c(Cl)c1 | 1.3 | 0.85 | 2.1 | 0.9 | 1 | 0.8 | 3.1 | 1 | 1.7 | 1.6 | 1.3 | – | – | – | – | – | – | – | – | – | –
N#C/C(=C\c1ccco1)c1ccc(Cl)c(Cl)c1 | 7 | 36 | 45 | 38 | 52 | 39 | 42 | 38 | 50 | 46 | 36 | – | – | – | – | – | – | – | – | – | –
N#C/C(=C\c1ccc(F)cc1)c1ccc(Cl)c(Cl)c1 | 6.5 | 9.3 | 5.6 | 9.5 | 10 | 10 | 18 | 13 | 16 | 11 | – | – | – | – | – | – | – | – | – | – | –
COc1ccc(/C=C(\C#N)c2ccc(Cl)c(Cl)c2)cc1 | 0.6 | 0.52 | 1.4 | 0.7 | 0.7 | 0.6 | 1.4 | 2.7 | 1.5 | 0.7 | – | – | – | – | – | – | – | – | – | – | –
O=C(O)/C(=C\c1ccc([N+](=O)[O-])cc1)c1ccc(Cl)c(Cl)c1 | – | – | – | – | – | – | – | – | – | – | – | 28 | < 10 | 11 | < 10 | < 10 | < 10 | < 10 | < 10 | < 10 | inhibition of growth at 25 µM (MIA PaCa-2 [21]): < 10%; inhibition of growth at 25 µM [22]: < 10%
COc1ccc(/C=C(\C(=O)O)c2ccc(Cl)c(Cl)c2)cc1 | – | – | – | – | – | – | – | – | – | – | – | 11 | < 10 | < 10 | < 10 | < 10 | < 10 | < 10 | < 10 | < 10 | inhibition of growth at 25 µM (MIA PaCa-2 [21]): < 10%; inhibition of growth at 25 µM [22]: < 10%
N#C/C(=C\c1ccc(-c2ccccc2)o1)c1ccc(Cl)c(Cl)c1 | – | – | – | – | – | – | – | – | – | – | – | 15 | < 10 | < 10 | 13 | 11 | < 10 | < 10 | < 10 | < 10 | inhibition of growth at 25 µM (MIA PaCa-2 [21]): < 10%; inhibition of growth at 25 µM [22]: < 10%
N#C/C(=C\c1ccc(CO)o1)c1ccc(Cl)c(Cl)c1 | – | – | – | – | – | – | – | – | – | – | – | 41 | < 10 | 27 | 25 | 30 | < 10 | < 10 | < 10 | 27 | inhibition of growth at 25 µM (MIA PaCa-2 [21]): < 10%; inhibition of growth at 25 µM [22]: 16%
N#C/C(=C\c1cc2ccccc2o1)c1ccc(Cl)c(Cl)c1 | – | – | – | – | – | – | – | – | – | – | – | 43 | 43 | 40 | 49 | 36 | 54 | 14 | 20 | 46 | inhibition of growth at 25 µM (MIA PaCa-2 [21]): 47%; inhibition of growth at 25 µM [22]: 55%
Cc1ccc(/C=C(\C#N)c2ccc(Cl)c(Cl)c2)o1 | – | – | – | – | – | – | – | – | – | – | – | 58 | 47 | 68 | 43 | 40 | 46 | < 10 | 50 | 32 | inhibition of growth at 25 µM (MIA PaCa-2 [21]): 36%; inhibition of growth at 25 µM [22]: 33%
Cc1[nH]c2ccccc2c1/C=C(\C#N)c1ccc(Cl)c(Cl)c1 | 2.8 | 1.9 | 3.8 | 2.2 | 2.2 | 2.1 | 5.6 | 2 | 4 | 2.4 | 2.9 | – | – | – | – | – | – | – | – | – | –
Cc1ccc2[nH]cc(/C=C(\C#N)c3ccc(Cl)c(Cl)c3)c2c1 | 3.7 | 2.8 | 4.7 | 3.2 | 3 | 3 | 7.4 | 3.4 | 5.3 | 3.7 | 4.1 | – | – | – | – | – | – | – | – | – | –
N#C/C(=C\c1c[nH]c2ccc(Cl)cc12)c1ccc(Cl)c(Cl)c1 | 2.3 | 7.1 | 8.8 | 7.4 | 8.7 | 7.7 | 12 | 8.6 | 9.7 | 11 | 6.7 | – | – | – | – | – | – | – | – | – | –
N#C/C(=C\c1c[nH]c2ccc(Br)cc12)c1ccc(Cl)c(Cl)c1 | 6.9 | 7 | 8.2 | 6.8 | 7.5 | 7.3 | 13 | 7 | 10 | 9 | 9.2 | – | – | – | – | – | – | – | – | – | –
N#C/C(=C\c1c[nH]c2ccc(C#N)cc12)c1ccc(Cl)c(Cl)c1 | – | – | – | – | – | – | – | – | – | – | – | 57 | 43 | 38 | 47 | 33 | 34 | 18 | 50 | 44 | inhibition of growth at 25 µM (MIA PaCa-2 [21]): 43%; inhibition of growth at 25 µM [22]: 44%
N#C/C(=C\c1c[nH]c2c1ccc1ccccc12)c1ccc(Cl)c(Cl)c1 | 4 | 4.2 | 7.5 | 3.7 | 5 | 3 | 8.7 | 3.8 | 6.8 | 6.1 | 5.9 | – | – | – | – | – | – | – | – | – | –
N#C/C(=C\c1ccc2[nH]ccc2c1)c1ccc(Cl)c(Cl)c1 | 0.23 | 0.36 | 0.67 | 0.41 | 0.39 | 0.37 | 1.04 | 0.33 | 0.83 | 0.5 | 0.74 | – | – | – | – | – | – | – | – | – | –
